Where two headings read alike, the source gives them in different places.
Key:
[1] = in vivo; cited from earlier work
[2] = Brain pharmacokinetics of co-administered DMT and DMT-d10 in male rats (IV bolus); type: in vivo, Sprague Dawley rats; conditions: for Brain Cmax: IV bolus 1 mg/kg each, co-dosed (Group 4)
Procedure: Experimental Design. This was a single dose study with 4 treatment groups as outlined in Table 1.
Sampling collection. PK samples (0.3 mL) were collected from the jugular vein by venepuncture into tubes containing K2EDTA anticoagulant at the following sampling times: Group 1 (IV) and Group 2 (oral) serial plasma collection at 0.083, 0.25, 0.5, 1, 3, 8 and 24 hr postdose; Group 4 (IV) composite plasma and brain collection at 0.083, 0.25, 0.5 and 1 hr postdose; Group 6 (inhalation) serial plasma collection at 0.333, 0.533, 0.833, 1.333, 3.333, 8.333 and 24.333 after start of inhalation.
Brain samples: After extraction of whole brain from the cranium, brains were rinsed, patted dry, weighed, placed into tubes and frozen on dry ice. Thereafter, they were stored at −70 […] pending analysis.
Bioanalysis. Plasma and brain homogenates were analyzed for DMT and DMT-d10 using an established LC-MS/MS assay.) Pharmacokinetic parameters were determined from the DMT and DMT-d 10 plasma and brain concentration-time profiles using commercially available software (Phoenix® WinNonlin®).

[3] = test system: head-twitch responses (HTRs); conditions: 1 mg/kg, intraperitoneal, rats and mice; cited from earlier work
human participants = conditions: cited from earlier work
[4] = rats, intraperitoneal injection; cited from earlier work
[5] = human, intravenous; cited from earlier work
neural oscillations = experiment: Experiment 7: topographic pharmaco-EEG mapping of N2O+DMT (planned); conditions: healthy humans, following DMT administration
[6] = Plasma pharmacokinetics of co-administered DMT and DMT-d10 in male rats (IV bolus, oral gavage, inhalation); conditions: for time of highest plasma concentration (first time point taken): IV bolus 1 mg/kg each; for time of highest plasma concentration (first time point taken) / mean residence time (MRT) after inhalation compared to IV administration: male rats; for F (bioavailability), inhalation: inhalation 14.3 (DMT) + 15.5 (DMT-d10) mg/kg, calculated from dose normalized AUC0-1 mean values vs Group 4 IV; for mean residence time (MRT) after inhalation compared to IV administration: inhalation vs IV; for AUC0-1/dose: plasma
[7] = target: T1, serotonin 5-HT2A receptor (Mus musculus, UniProt P35363); experiment: Head twitch response (HTR) in mice, DMT-d10 with or without N2O; type: in vivo, mice (C57B16/J); conditions: DMT-d10 5.6 mg/kg s.c.; for head twitch responses (HTRs), result in words: mice, room air or N2O 50%, first 30 minutes; for Mean rank diff., total HTRs: Dunn's multiple comparisons, Veh/Air vs. treatment, N2O 50% inhaled
T1 construct: Mice were exposed to a medium dose of the 5-HT2A agonist DMT-d10; from tissue; host or cells: living adult male C57Bl6/J mice (in vivo behavioural assay)
T1 sequence (P35363 whole entry): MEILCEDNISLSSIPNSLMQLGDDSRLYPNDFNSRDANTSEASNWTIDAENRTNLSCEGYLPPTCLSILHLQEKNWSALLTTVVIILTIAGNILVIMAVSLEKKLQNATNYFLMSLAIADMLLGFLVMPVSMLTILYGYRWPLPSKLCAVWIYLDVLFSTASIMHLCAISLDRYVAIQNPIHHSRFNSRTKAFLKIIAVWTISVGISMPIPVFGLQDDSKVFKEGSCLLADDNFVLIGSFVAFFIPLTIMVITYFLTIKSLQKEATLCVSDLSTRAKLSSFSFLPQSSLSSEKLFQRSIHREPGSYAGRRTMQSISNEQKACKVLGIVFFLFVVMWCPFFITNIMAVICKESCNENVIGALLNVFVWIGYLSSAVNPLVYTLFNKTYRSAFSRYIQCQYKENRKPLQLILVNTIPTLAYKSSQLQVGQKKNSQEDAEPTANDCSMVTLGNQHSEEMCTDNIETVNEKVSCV
Procedure: Experiment 1—Effect of N2O on the pharmacodynamic effects of DMT-d10. The dose-dependent behavioral effects of N2O on DMT-d10-induced head twitch response (HTR) in mice was determined.
Rationale: The head-twitch response (HTR) is a rapid side-to-side head movement that occurs in mice and rats after the serotonin 5-HT2A receptor is activated. The HTR is widely used as a behavioral assay for 5-HT2A activation and to probe for interactions between the 5-HT2A receptor and other transmitter systems (see Halberstadt, A. L. & Geyer, M. A. Characterization of the head-twitch response induced by hallucinogens in mice: detection of the behavior based on the dynamics of head movement. Psychopharmacology (Berl) 227, 10.1007/s00213-013-3006-z (2013); Canal, C. E. & Morgan, D. Head-twitch response in rodents induced by the hallucinogen 2,5-dimethoxy-4-iodoamphetamine: a comprehensive history, a re-evaluation of mechanisms, and its utility as a model. Drug Test Anal 4, 556-576 (2012)).
Data analysis: The number of head twitches over the first 30 minutes was summed (0-15 minutes, 15-30 minutes intervals) and analyzed by non-parametric Kruskal Wallis test with Dunn's multiple comparison tests between groups.

[8] = test system: Adult Male Laboratory Mice (C57B16/J); experiment: Locomotor activity (distance travelled, Ethovision) in mice; type: in vivo; conditions: DMT-d10 5.6 mg/kg s.c.; for Mean rank diff., total distance travelled: Dunn's multiple comparisons, Veh/Air vs. treatment, N2O 50% inhaled
bdnf = experiment: RTqPCR gene expression in mouse left frontal cortex: bdnf; type: in vivo, mice (C57B16/J); conditions: 60 min treatment + 60 min room air, DMT-d10 5.6 mg/kg s.c., N2O 50% inhaled
homer1 = experiment: RTqPCR gene expression in mouse left frontal cortex: homer1; type: in vivo, mice (C57B16/J); conditions: 60 min treatment + 60 min room air, DMT-d10 5.6 mg/kg s.c., N2O 50% inhaled
syn1 = experiment: RTqPCR gene expression in mouse left frontal cortex: syn1; type: in vivo, mice (C57B16/J); conditions: 60 min treatment + 60 min room air, DMT-d10 5.6 mg/kg s.c., N2O 50% inhaled
[9] = test system: early growth response protein 2 (egr2); experiment: RTqPCR gene expression in mouse left frontal cortex: egr2; conditions: 60 min treatment + 60 min room air, DMT-d10 5.6 mg/kg s.c., N2O 50% inhaled
[10] = test system: fibroblast growth factor 2 (fgf2); experiment: RTqPCR gene expression in mouse left frontal cortex: fgf2; conditions: 60 min treatment + 60 min room air, DMT-d10 5.6 mg/kg s.c., N2O 50% inhaled
[11] = test system: serum/glucocorticoid regulated kinase 1 (sgk1); experiment: RTqPCR gene expression in mouse left frontal cortex: sgk1; conditions: 60 min treatment + 60 min room air, DMT-d10 5.6 mg/kg s.c., N2O 50% inhaled
c-fos = experiment: RTqPCR gene expression in mouse left frontal cortex: c-fos; conditions: 60 min treatment + 60 min room air, DMT-d10 5.6 mg/kg s.c., N2O 50% inhaled
[12] = brain, male rats, IV bolus 1 mg/kg each (Group 4)
[13] = IV bolus of DMT (as fumarate salt) 0.05-0.4 mg/kg
[14] = Inhalation 14.3 (DMT) / 15.5 (DMT-d10) mg/kg

| Structure (SMILES) | elimination half-life [1] | Brain AUC0-t [2, 12] | Brain Cmax ([2]; brain, male rats) | time of highest plasma concentration (first time point taken) [6] | F (bioavailability), inhalation [6] | mean residence time (MRT) after inhalation compared to IV administration [6] | AUC0-1/dose [6, 14] | AUC0-1/dose ([6]; Intravenous 1 mg/kg each) | AUC0-1/dose ([6]; Oral 10 mg/kg each) | head twitch responses (HTRs), result in words [7] | Mean rank diff., total HTRs ([7]; minutes 0-15) | Mean rank diff., total HTRs ([7]; minutes 15-30) | Mean rank diff., total distance travelled ([8]; minutes 0-15) | Mean rank diff., total distance travelled ([8]; minutes 15-30) | bdnf gene expression, percentage change compared to control (Veh/Air), % mean (bdnf) | homer1 gene expression, percentage change compared to control (Veh/Air), % mean (homer1) | syn1 gene expression, percentage change compared to control (Veh/Air), % mean (syn1) | egr2 gene expression, percentage change compared to control (Veh/Air), % mean [9] | fgf2 gene expression, percentage change compared to control (Veh/Air), % mean [10] | sgk1 gene expression, percentage change compared to control (Veh/Air), % mean [11] | other results |
| --- | --- | --- | --- | --- | --- | --- | --- | --- | --- | --- | --- | --- | --- | --- | --- | --- | --- | --- | --- | --- | --- |
| COc1ccc2[nH]cc(CCN(C)C)c2c1 [5-MeO-DMT, 5-methoxy-N,N-dimethyltryptamine] | 12 to 19 min | – | – | – | – | – | – | – | – | – | – | – | – | – | – | – | – | – | – | – | – |
| CN(C)CCc1c[nH]c2ccccc12 [DMT, N,N-dimethyltryptamine] | 12 to 19 min | 1060 ng·h/g | 3430 ng/g | 0.083 h | 16.3% | approximately 5 × | 18.2 | 112 | 1.52 | – | – | – | – | – | – | – | – | – | – | – | Brain AUC0-inf [2, 12]: 1070 ng·h/g; hallucinogenic potential as measured by head-twitch responses (HTRs) [3]: sub-hallucinogenic; hallucinogenic effect (human participants; 0.1 mg/kg IV): not hallucinogenic; hallucinogenic effect (human participants; 0.2 and 0.4 mg/kg IV): nearly instantaneous onset of visual hallucinatory phenomena; time by which psycho-biological effects resolve (human participants; [13]): ≤ 30 minutes; time of peak of psycho-biological effects (human participants; [13]): 120 seconds; duration of effect of vaporized DMT (human participants; vaporized or inhaled free-base, 40-50 mg): less than 30 min; half-life [4]: 5 to 15 min; time to be metabolized and cleared from brain, liver, and plasma [4]: ≤ 1 h; half-life [5]: around 15 minutes; time to peak plasma concentrations [5]: approximately 2 minutes; absolute power in EEG frequency bands (neural oscillations): decreased absolute power in all frequency bands |
| [N-]=[N+]=O [N2O, nitrous oxide] | – | – | – | – | – | – | – | – | – | attenuates DMT-d10-induced HTRs | −1.250 | 0.000 | −11.40 | −8.000 | 15.67% | 29.35% | 13.38% | 38.30% | 5.24% | 33.82% | c-fos gene expression, percentage change compared to control (Veh/Air), % mean (c-fos): 32.29% |
| [2H]C([2H])([2H])N(C([2H])([2H])[2H])C([2H])([2H])C([2H])([2H])c1c[nH]c2ccccc12 [DMT-d10] | – | 931 ng·h/g | 1490 ng/g | 0.083 h | 22.6% | approximately 5 × | 17.0 | 75.4 | 0.878 | modest number of HTRs | −22.65 | −12.80 | 16.50 | 19.30 | −9.25% | 2.44% | 1.47% | 8.24% | 3.13% | 15.58% | improvement of brain to plasma (B/P) ratio by deuteration ([2]; DMT-d10 vs. DMT, IV 1 mg/kg, rats): approximately 30%; distance travelled (locomotor behavior), result in words ([8]; mice, room air or N2O 50%, minutes 0-15 and 15-30): travelled less distance than the vehicle/air group; c-fos gene expression, percentage change compared to control (Veh/Air), % mean (c-fos): 18.57%; increase of inhalation bioavailability by deuteration ([6]; DMT-d10 vs. DMT, inhalation, rats): approximately 40% |
